Series [1] addresses Nav1.8 ion channel stably expressed on HEK293 cells (Homo sapiens (Human), UniProt Q9Y5Y9). Nature of the series: Inhibitory activity against Nav1.8, manual patch clamp. The series is classed as cell-based. The note with it: resting protocol (-80 mV to 10 mV), 1 μM TTX, read-out: IC50 for the inhibition of Nav1.8 channel activity.
Series [2] in a line: Pharmacokinetic evaluation in C57 mice (i.g./i.v.). It is filed as in vivo. The note with it: for Vd / AUC(0-t) / half-life / Cmax / bioavailability / CL/F: both sexes, mouse, plasma; for Vd: read-out: Apparent distribution volume Vss; for AUC(0-t): read-out: Area under curve AUC0-t; for half-life: read-out: Half-life T½ (converted); for Cmax: read-out: Plasma concentration Cmax; for bioavailability: oral, i.g. 2.0 mg/kg vs i.v. 1.0 mg/kg, read-out: Bioavailability F; for CL/F: read-out: Clearance rate CL/F; for Clearance rate CL/F: i.v. Here is the method:
C57 mice were used as test animals. After intragastric (i.g.)/intravenous (i.v.) administration of the compounds of the present disclosure to C57 mice, the plasma concentrations of the compounds at different time points were determined by the LC/MS/MS method. The pharmacokinetic behaviors of the compounds of the present disclosure in C57 mice were studied, and their pharmacokinetic profiles were evaluated.
Compound 16 and compound 32.
Thirty-six C57 mice, with an equal number of males and females, provided by Vital River Laboratory Animal Technology Co., Ltd., with the production licenses SCXK (Zhejiang) 2019-0001 and SCXK (Beijing) 2019-0006. The mice were evenly divided into 4 groups of 9, with 3 mice per time point per group, and dosed by intragastric and intravenous administration.
Certain amounts of the test compounds were weighed out, and 5% DMSO+5% tween 80+90% normal saline was added to prepare 0.1 mg/mL colorless clear solutions (for the intragastric administration groups) and 0.1 mg/mL colorless clear solutions (for the intravenous administration groups).
The intragastric administration groups: The administration dose was 2.0 mg/kg, and the administration volume was 20 mL/kg.
The intravenous administration groups: The administration dose was 1.0 mg/kg, and the administration volume was 10 mL/kg.
The intragastric administration groups: 0.1-mL blood samples were collected from the orbit before administration and 0.25, 0.5, 1.0, 2.0, 4.0, 6.0, 8.0, 11.0, and 24.0 h after administration, placed into EDTA-K2 anticoagulation test tubes, and centrifuged at 10,000 rpm for 1 min (4° C.), and the plasma was separated within 1 h and stored at −80° C. before analysis. The procedures from the blood collection to the centrifugation were performed under ice-bath conditions.
The intravenous administration groups: Blood samples were collected before administration and 5 min and 0.25, 0.5, 1.0, 2.0, 4.0, 8.0, 11.0, and 24 h after administration and were treated in the same way as those collected from the intragastric administration groups.
Determination of the plasma concentrations of the test compounds in C57 mice after the compounds were administered at different concentrations: Compound 16: A 20-μL sample of the C57 mouse plasma collected at each time point after administration was taken, and 200 μL of acetonitrile containing 100 ng/mL camptothecin (internal standard) was added to each sample to precipitate protein. The mixture was vortexed for 5 min and centrifuged at 3700 rpm for 10 min. 50 μL of the supernatant was taken, and 100 μL of water was added. The mixture was vortexed for 5 min, and 1 μL of the mixture was taken for LC/MS/MS analysis. Compound 32: A 20-μL sample of the C57 mouse plasma collected at each time point after administration was taken, and 200 μL of acetonitrile containing verapamil (internal standard, 20 ng/mL) was added to each sample to precipitate protein. The mixture was vortexed for 5 min and centrifuged at 3700 rpm for 10 min. 90 μL of the supernatant was taken, and 90 μL of water was added. The mixture was vortexed for 5 min, and 0.1 μL of the mixture was taken for LC/MS/MS analysis.

SMILES strings stand for the structures. Where two headings read alike, the source gives them in different places.

Turning to `CO/N=C(\N)c1cc(NC(=O)[C@@H]2O[C@@](C)(C(F)(F)F)[C@@H](C)[C@H]2c2ccc(F)c(F)c2OC)ccn1` [Example 16], in series [1], the IC50 – broadly, the concentration that inhibits the measured activity by half – stood at 0.33 nM. Also, in series [2] (iv, 1.0 mg/kg), the Vd was found to be 9.97 L/kg, the AUC(0-t) was 718 ng·h/mL, the half-life (commonly the time in which the quantity being followed falls by half) was 486 min and the Cmax is 377 ng/mL. Also, the bioavailability (in general, the share of a dose that reaches the circulation, judged against a reference dose that is usually intravenous) in series [2] was 87.2%. Further, in series [2] (po, i.g., 2.0 mg/kg), the AUC(0-t) worked out at 1250 ng·h/mL, the CL/F is 24.4 mL/min/kg, the half-life was 450 min and the Cmax came to 266 ng/mL. The “Clearance rate CL/F” value in series [2] (1.0 mg/kg) worked out at 21.1 mL/min/kg.

Take `COc1c([C@H]2[C@H](C(=O)Nc3ccnc(/C(N)=N/O)c3)O[C@@](C)(C(F)(F)F)[C@H]2C)ccc(F)c1F` [Example 32]: the IC50 in series [1] was determined as 0.93 nM. Moreover, in series [2] (iv, 1.0 mg/kg), the Vd came out at 3.93 L/kg, the AUC(0-t) was 947 ng·h/mL, the half-life is 198 min and the Cmax was 616 ng/mL. Further, in series [2], the bioavailability came to 82.6%. Besides, in series [2] (po, i.g., 2.0 mg/kg), the AUC(0-t) is 1560 ng·h/mL, the CL/F amounted to 21.2 mL/min/kg, the half-life was 192 min and the Cmax turned out to be 260 ng/mL. In addition, the “Clearance rate CL/F” value in series [2] (1.0 mg/kg) came out at 16.1 mL/min/kg.
